Experimental data published in paper PMC12457599, “Targeting Acinetobacter baumannii lipase by coniferous species through metabolomics supported approach” (Scientific Reports, 2025).

Assays:
A. baumannii (AB5075) = assay: Growth curve assay
[1] = system: A. baumannii strain (AB5075); assay: Broth microdilution MIC; details: Acinetobacter baumannii, 24 h
[2] = system: A. baumannii strain (AB5075); assay: Tetrazolium/formazan (TTC) assay, effective inhibitory concentration; type: cell-based, Acinetobacter baumannii
[3] = system: Staphylococcus aureus lipases; set-up: method as in PMID 17559400; details: cited from earlier work

| MIC [1] [µg/mL] | SMILES | growth extent versus DMSO (A. baumannii (AB5075); 64 µg/mL) | growth extent versus DMSO (A. baumannii (AB5075); 128 µg/mL, mid-logarithmic and early stationary phases) | EIC ([2]; TTC assay, lowest concentration preventing red color formation, tested 420–640 µg/mL) [µg/mL] | direct antimicrobial activity against A. baumannii ([2]; summary of MIC and EIC) | IC50 [3] [µM] |
| --- | --- | --- | --- | --- | --- | --- |
| > 128 | CCCCCCCCCCC[C@@H](C[C@@H]1OC(=O)[C@H]1CCCCCC)OC(=O)[C@H](CC(C)C)NC=O [Orlistat, orlistat] | not | significant reduction in growth extent | 640 | minimal direct antimicrobial activity |  |
|  | CC(C)=CCC/C(C)=C/CC/C(C)=C/CO [Farnesol] |  |  |  |  | 570 |
